From patent US8507724B2 (priority 2008, dated 2013)
Several values for one entry are separate records, joined by “and”; a condition that tells them apart may be missing. Equal values may be shown once. Read-outs that look alike come from different tables or passages of the source.

Tests used:
[1] = target: T1, α1 homomeric glycine receptors (Rattus norvegicus, UniProt P07727); assay: Whole-cell patch-clamp, Cl- current activated via α1 homomeric glycine receptors in transfected HEK 293 cells; assay type: cell-based
T1 construct: expressed in transfected cells; host or cells: HEK 293 (transient transfection by electroporation, cDNA in pCIS2 vector)
T1 sequence (P07727 29-457): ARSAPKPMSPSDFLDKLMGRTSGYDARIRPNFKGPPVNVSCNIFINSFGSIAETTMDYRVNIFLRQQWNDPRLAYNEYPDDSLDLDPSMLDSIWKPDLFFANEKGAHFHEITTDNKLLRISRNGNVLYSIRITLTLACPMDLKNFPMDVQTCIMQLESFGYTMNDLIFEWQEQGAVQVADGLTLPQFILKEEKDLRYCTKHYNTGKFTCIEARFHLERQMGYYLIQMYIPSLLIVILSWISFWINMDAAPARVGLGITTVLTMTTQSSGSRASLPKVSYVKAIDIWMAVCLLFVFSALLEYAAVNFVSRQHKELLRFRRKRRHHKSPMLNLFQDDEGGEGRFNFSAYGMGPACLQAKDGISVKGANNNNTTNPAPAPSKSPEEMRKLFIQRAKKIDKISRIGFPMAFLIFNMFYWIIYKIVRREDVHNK
Experimental: Cells were cultured in Dulbecco's modified Eagle's medium (DMEM, Biochrom, Berlin, Germany), supplemented with 10% fetal calf serum (FCS, Biochrom, Berlin, Germany), 100 U ml^−1 penicillin and 100 μg ml^−1 streptomycin at 37° C. in a 5% CO2/air incubator. […] For co-transfection of rat α1 glycine receptor subunits, the corresponding cDNA, each subcloned in the pCIS2 expression vector (Invitrogen, San Diego, USA), was added to the suspension. To visualize transfected cells, they were co-transfected with cDNA of green fluorescent protein (GFP 10 μg ml^−1). For transfection, we used an electroporation device by EquiBio (Kent, UK).
The compounds according to the present invention under investigation were prepared as 1 M stock solution in ethanol, light-protected and stored in glass vessels at −20° C. Concentrations were calculated from the amount injected into the glass vials. Drug-containing vials were vigorously vortexed for 60 min. Glycine and picrotoxin were dissolved directly in bath solution.
Patch electrodes contained [mM] KCl 140, MgCl2 2, EGTA 11, HEPES 10, glucose 10; the bath solution contained [mM]
A tight electrical seal of several GΩ formed between the cell membrane and a patch-clamp electrode allows inward currents due to agonist-induced channel activation to resolve in the pA range. Electrical resistance of the pipettes was around 5 MΩ, corresponding to a total access resistance in the whole-cell configuration of about 10 MΩ. The compounds according to the present invention under investigation were applied to the cells via a smooth liquid filament achieved with a single outflow (glass tubing 0.15 mm inner diameter) connected to a piezo crystal. The cells were placed at the interface between this filament and the continuously flowing background solution. When a voltage pulse was applied to the piezo, the tube was moved up and down onto or away from the cell under investigation. Correct positioning of the cell in respect to the liquid filament was ensured applying a saturating (1000 μM) glycine pulse before and after each test experiment. Care was taken to ensure that the amplitude and the shape of the glycine-activated current had stabilized before proceeding with the experiment. Test solution and glycine (1000 μM) were applied via the same glass-polytetrafluoroethylen perfusion system, but from separate reservoirs. The contents of these reservoirs were mixed at a junction immediately before entering the superfusion chamber.
The compounds under test were applied alone in order to determine their direct agonistic effects. A new cell was used for each compound and each protocol, at least three different experiments were performed for each setting. The amount of the diluent ethanol corresponding to the highest compound concentration used was 34 000 μM.
For data acquisition and further analysis the inventors used the Axopatch 200B amplifier in combination with pClamp6 software (Axon Instruments, Union City, Calif., USA). Currents were filtered at 2 kHz. Fitting procedures were performed using a non-linear least-squares Marquardt-Levenberg algorithm. Details are provided in the appropriate figure legends or in the results section.
Activated currents were normalized to their own maximum response. The dose-response-curves were fitted according to (Inorm=[1+(EC50/[C])^nH]^−1), where Inorm is the current induced directly by the respective concentration [C] of the compound, normalized to the maximum inward current.

in vivo = assay type: in vivo; details: rat; for Tmax: read-out: tmax (converted); for half-life: mean n=3, read-out: t1/2
Experimental: […] Whole blood samples were taken from a lateral tail vein for plasma separation at time points 0 min, 30 min, 1 h, 2 h and 4 h after p.o. dosing; and 0 min, 15 min, 30 min, 1 h, and 2 h after i.v. dosing, while the terminal samples at time point 6 h after dosing (p.o and Lv.) were taken by cardiac puncture. All time points were taken from a single rat, and all experiments were carried out in triplicate.
The samples were thawn at room temperature and prepared by protein precipitation with ratio 1:2 of plasma and acetonitrile and were centrifuged 10 minutes at 16 100×g (Eppendorf 5415D, Eppendorf AG, Hamburg, Germany) before injection to UPLCIMSMS system. The standard samples were prepared similarly, after spiking blank plasma samples to 0.5, 2, 5, 10, 20, 50, 200, 500, 1000 and 2000 ng/ml of the analyte compounds.
The pharmacokinetic parameters for study compounds were calculated by WinNonlin Pro (Pharsight Corp, CA) using standard noncompartmental methods. The volume of distribution (Vd) was based on the terminal phase. The elimination phase half-life (t1/2) was calculated by least-squares regression analysis of the terminal linear part of the log concentration-time curve. The area under the plasma concentration-time curve (AUC) was determined by use of the linear trapezoidal rule up to the last measurable concentration and thereafter by extrapolation of the terminal elimination phase to infinity. The area under the plasma concentration-time curve without terminal extrapolation is reported as AUC 0-6 h. The mean residence time (MRT) representing the average amount of time a compound remains in a compartment or system was calculated extrapolating the drug concentration profile to infinity. The maximum plasma concentration (cmax) and the time to cmax (tmax) were derived directly from the plasma concentration data. The tentative oral bioavailability (F) was calculated by dividing the AUC after p.o. administration by the AUC after i.v. administration taking into account the differences in dose, i.e. F=AUC(p.o.)/Dose(p.o.)/AUC(i.v)/[…], and reported as percentages (%).
A Waters Acquity chromatographic system (Waters Corp., Milford, Mass., USA) with autosampler, vacuum degasser and column oven was used. The analytical column used for all compounds was a Waters BEH ShieldRP18, (2.1×50 mm, 1.7 μm, Waters Corp, Milford, Mass., USA) together with an on-line filter. The eluents were 0.1% acetic acid (A, pH 3.2) and acetonitrile (B). A linear gradient elution from 5% B to 35% B in 0-2 minutes, from 35% B to 85% B in 2.0-3.0 min was employed, followed by 1 min isocratic elution with […] and column equilibration. The flow rate was 0.5 ml/min and the column oven temperature was 35° C. LC/MS/MS/data was acquired with a Micromass Quattro Premier triple quadrupole mass spectrometer equipped with a LockSpray electrospray ionization source. A negative ion mode ionisation was used. The multiple reaction monitoring (MRM) mode of detection was used. The mass spectrometer and UPLC system were operated under Micromass MassLynx 4.1 software. Complete LC/MS/MS parameters are presented in Appendix I.
Detection/quantitation limits between 2 ng/ml and 10 ng/ml in plasma were obtained for each compound. Calibration curves for quantification were generated by fitting the ratio of the external standard peak areas as a function of the concentration, excluding the point of origin and using 1/x weighting and linear or quadratic fitting. The ranges up to 2000 ng/ml were fitted for calibration curves. […] The overall precisions 12.0-17.0% were calculated from the standard samples (two injection/concentration), using Snedecor equation S=(Σd^2/2n)^0.5, in which S=precision, d is the difference between duplicates expressed as % of the mean value, and N is the number of standard concentration. The concentrations of each study compound in the samples are shown in the Appendices IV-VI.

[2] = EC50 (nM), α1 homomer, initial tests, Hill fit to normalised response, rat α1 receptors in HEK 293
[3] = initial tests, Hill fit to normalised response
[4] = plasma, iv, i.v. 1 mg/kg, mean n=3
[5] = 1 mg/kg i.v., individual animals, 1 mg/kg
[6] = 8 mg/kg p.o., individual animals, 8 mg/kg

CC(C)c1cc(-c2ccc(-c3ccccc3)cc2)cc(C(C)C)c1O [4-(p-biphenyl)-propofol]
EC50 [1, 2]: 0.8 ± 0.2 nM
nH (Hill coefficient), α1 homomer [1, 3]: 2.6 ± 1.2

CC(C)c1cc(-c2ccc(C(C)(C)C)cc2)cc(C(C)C)c1O [4-(p-tert-butylphenyl)-propofol]
EC50 [1, 2]: 0.05 ± 0.03 nM
nH (Hill coefficient), α1 homomer [1, 3]: 2.0 ± 0.4

CC(C)c1cc(Cl)cc(C(C)C)c1O [4-Cl-propofol, 4-Chloropropofol]
clearance (in vivo; [4]): 148 mL/min/kg
Tmax (in vivo; [4]): 15 min
bioavailability (in vivo; plasma, oral, 8 mg/kg p.o. vs 1 mg/kg i.v., read-out: F (%) tentative oral bioavailability): 72.4%
Tmax (in vivo; plasma, po, p.o. 8 mg/kg, mean n=3): 30 min
tmax (in vivo; 1 mg/kg i.v., individual animals): 15 min
AUC (in vivo; [5]): 10.7 µg·min/mL and 5.43 µg·min/mL and 6.01 µg·min/mL
CL/F (in vivo; [5]): 93.2 mL/min/kg and 184 mL/min/kg and 166 mL/min/kg
MRT (in vivo; [5]): 31.8 min and 80.8 min and 33.6 min
cmax (in vivo; [5]): 170 ng/mL and 70 ng/mL and 90 ng/mL
t1/2 (in vivo; [5]): 16.3 min and 81.8 min and 48.2 min
tmax (in vivo; 8 mg/kg p.o., individual animals): 30 min
AUC (in vivo; [6]): 33.2 µg·min/mL and 34.9 µg·min/mL and 60.4 µg·min/mL
CL/F (in vivo; [6]): 229 mL/min/kg and 133 mL/min/kg
MRT (in vivo; [6]): 305 min and 760 min and 764 min
cmax (in vivo; [6]): 0.12 μg/mL (2×) and 0.05 μg/mL
t1/2 (in vivo; [6]): 205 min and 493 min and 496 min
ADC 0-6 h (in vivo; i.v. 1 mg/kg, mean n=3): 6.29 µg·min/mL
AUC (in vivo; i.v. 1 mg/kg, mean n=3): 7.39 µg·min/mL
CL/F (in vivo; i.v. 1 mg/kg, mean n=3): 148 mL/min/kg
half life (in words) (in vivo; i.v. dosing): intermediate
clearance (in words) (in vivo; i.v. dosing, compared to rat liver blood flow): very high
concentration in plasma (in vivo; iv (1 mg/kg), 15 min, individual animals, listed as CK1-1, 1 mg/kg): 172 ng/mL and 70.0 ng/mL and 94.3 ng/mL
concentration in plasma (in vivo; iv (1 mg/kg), 30 min, individual animals, listed as CK1-1, 1 mg/kg): 26.1 ng/mL and 25.4 ng/mL
concentration in plasma (in vivo; iv (1 mg/kg), 1 h, individual animals, listed as CK1-1, 1 mg/kg): 15.2 ng/mL and 16.5 ng/mL
concentration in plasma (in vivo; iv (1 mg/kg), 2 h, individual animals, listed as CK1-1, 1 mg/kg): 33.7 ng/mL and 11.5 ng/mL
detection in plasma after oral (p.o.) administration (in vivo; p.o.): observed in plasma
ADC 0-6 h (in vivo; p.o. 8 mg/kg, mean n=3): 18.7 µg·min/mL
AUC (in vivo; p.o. 8 mg/kg, mean n=3): 42.8 µg·min/mL
CL (in vivo; p.o. 8 mg/kg, mean n=3): 146 mL/min/kg
Vd (in vivo; p.o. 8 mg/kg, mean n=3): 79.6 L/kg
MRT (in vivo; plasma, iv, 1 mg/kg, i.v. 1 mg/kg, mean n=3, read-out: MRT (converted)): 48.7 min
Vd (in vivo; plasma, iv, 1 mg/kg, i.v. 1 mg/kg, mean n=3, read-out: Vd): 11.8 L/kg
cmax (in vivo; plasma, iv, 1 mg/kg, i.v. 1 mg/kg, mean n=3, read-out: cmax): 110 ng/mL
half-life (in vivo; plasma, iv, 1 mg/kg, i.v. 1 mg/kg): 48.8 min
concentration at 30 min (in vivo; plasma, iv, 1 mg/kg, iv (1 mg/kg), 30 min, individual animals): 47.3 ng/mL
concentration at 1 h (in vivo; plasma, iv, 1 mg/kg, iv (1 mg/kg), 1 h, individual animals): 13.2 ng/mL
CL/F (in vivo; plasma, po, 8 mg/kg, 8 mg/kg p.o., individual animals, read-out: CL/F): 241 mL/min/kg
Vd/F (in vivo; plasma, po, 8 mg/kg, p.o. 8 mg/kg, mean n=3): 110 L/kg
CL/F (in vivo; plasma, po, 8 mg/kg, p.o. 8 mg/kg, mean n=3, read-out: CL/F): 201 mL/min/kg
MRT (in vivo; plasma, po, 8 mg/kg, p.o. 8 mg/kg, mean n=3, read-out: MRT (converted)): 609 min
cmax (in vivo; plasma, po, 8 mg/kg, p.o. 8 mg/kg, mean n=3, read-out: cmax): 100 ng/mL
half-life (in vivo; plasma, po, 8 mg/kg, p.o. 8 mg/kg): 398 min
concentration at 4 h (in vivo; plasma, po, 8 mg/kg, po (8 mg/kg), 4 h, individual animals): 61.8 ng/mL
concentration at 6 h (in vivo; plasma, po, 8 mg/kg, po (8 mg/kg), 6 h, individual animals): 33.8 ng/mL
concentration in plasma (in vivo; po (8 mg/kg), 30 min, individual animals, listed as CK1-1, 8 mg/kg): 121 ng/mL and 116 ng/mL and 51.0 ng/mL
concentration in plasma (in vivo; po (8 mg/kg), 1 h, individual animals, listed as CK1-1, 8 mg/kg): 99.8 ng/mL and 47.3 ng/mL and 57.2 ng/mL
concentration in plasma (in vivo; po (8 mg/kg), 2 h, individual animals, listed as CK1-1, 8 mg/kg): 64.3 ng/mL and 25.3 ng/mL and 52.3 ng/mL
concentration in plasma (in vivo; po (8 mg/kg), 4 h, individual animals, listed as CK1-1, 8 mg/kg): 36.1 ng/mL and 55.1 ng/mL
concentration in plasma (in vivo; po (8 mg/kg), 6 h, individual animals, listed as CK1-1, 8 mg/kg): 32.0 ng/mL and 55.3 ng/mL

CC(C)c1cc(NC(=O)C(F)(F)F)cc(C(C)C)c1O [4-trifluoroacetamide-propofol, 4-Trifluoroacetamide-propofol]
EC50 [1, 2]: 0.3 nM
EC50 ([1]; EC50, further series of tests (later tests)): 0.11 nM
